Like-named read-outs stand apart in the source and are kept apart here.
Target: hGR (GR-LBD) (Homo sapiens (Human), UniProt P04150)
Test: hGR CoActivator Recruitment Assay (LanthaScreen TR-Fret GR Coactivator Assay)
Format: biochemical
Conditions: top concentration 200 nM
Method: hGR CoActivator Recruitment Assay
The activity of glucocorticoid compounds was measured using the LanthaScreen TR-Fret GR Coactivator Assay from Life Technologies (A15899). The compounds were acoustically transferred to an assay plate in a 3-fold 10-point serial dilution with a top concentration of 200 nM. Ten microliters of a 2× solution of GR-LBD was added to the compound plate and incubated for 10 min. Then ten microliters of a 2× solution of Fluoresein-SRC1-4 and Tb labelled anti-GST antibody were added to the plate. The plate was incubated in the dark for two hours and then read on an Envision plate reader, with excitation at 340 nm and emission at 520 nm (Fluorescein) and 490 nm (Terbium). The emission ratio of 520/490 was analyzed in Genedata. To obtain percent activity, the data was compared to a negative control of DMSO and positive control of 4 uM dexamethasone.

[1] = 10-point dilution, positive control 4 uM dexamethasone, read-out: IC50

hGR (GR-LBD), sequence (P04150 524-758): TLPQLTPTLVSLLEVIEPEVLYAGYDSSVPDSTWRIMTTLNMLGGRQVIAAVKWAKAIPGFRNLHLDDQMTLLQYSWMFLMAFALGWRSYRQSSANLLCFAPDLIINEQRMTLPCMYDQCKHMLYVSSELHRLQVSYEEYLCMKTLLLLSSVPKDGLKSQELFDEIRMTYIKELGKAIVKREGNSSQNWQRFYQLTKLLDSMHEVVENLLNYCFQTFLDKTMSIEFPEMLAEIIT

| SMILES | IC50 [1] | IC50 (read-out: relative IC50) |
| --- | --- | --- |
| Cc1ccc(OCc2cccc(N)c2)c(F)c1[C@@H]1O[C@@H]2C[C@H]3[C@@H]4CCC5=CC(=O)C=C[C@]5(C)[C@H]4[C@@H](O)C[C@]3(C)[C@]2(C(=O)CO)O1 [Example 1, (6aR,6bS,7S,8aS,8bS,10R,11aR,12aS,12bS)-10-(3-((3-Aminobenzyl)oxy)-2-fluoro-6-methylphenyl)-7-hydroxy-8b-(2-hydroxyacetyl)-6a,8a-dimethyl-1,2,6a,6b,7,8,8a,8b,11a,12,12a,12b-dodecahydro-4H-naphtho[2′,1′:4,5]indeno[1,2-d][1,3]dioxol-4-one] | 2.12 nM |  |
| Cc1ccc(OCc2cccc(N)c2)c(F)c1[C@H]1O[C@@H]2C[C@H]3[C@@H]4CCC5=CC(=O)C=C[C@]5(C)[C@H]4[C@@H](O)C[C@]3(C)[C@]2(C(=O)CO)O1 [Example 2, (6aR,6bS,7S,8aS,8bS,10S,11aR,12aS,12bS)-10-(3-((3-Aminobenzyl)oxy)-2-fluoro-6-methylphenyl)-7-hydroxy-8b-(2-hydroxyacetyl)-6a,8a-dimethyl-1,2,6a,6b,7,8,8a,8b,11a,12,12a,12b-dodecahydro-4H-naphtho[2′,1′:4,5]indeno[1,2-d][1,3]dioxol-4-one] | 1.44 nM |  |
| COc1ccc(OCc2cccc(N)c2)c(F)c1[C@@H]1O[C@@H]2C[C@H]3[C@@H]4CCC5=CC(=O)C=C[C@]5(C)[C@H]4[C@@H](O)C[C@]3(C)[C@]2(C(=O)CO)O1 [Example 4, (6aR,6bS,7S,8aS,8bS,10R,11aR,12aS,12bS)-10-(3-((3-Aminobenzyl)oxy)-2-fluoro-6-methoxyphenyl)-7-hydroxy-8b-(2-hydroxyacetyl)-6a,8a-dimethyl-1,2,6a,6b,7,8,8a,8b,11a,12,12a,12b-dodecahydro-4H-naphtho[2′,1′:4,5]indeno[1,2-d][1,3]dioxol-4-one] | 2.47 nM |  |
| COc1ccc(OCc2cccc(N)c2)c(F)c1[C@H]1O[C@@H]2C[C@H]3[C@@H]4CCC5=CC(=O)C=C[C@]5(C)[C@H]4[C@@H](O)C[C@]3(C)[C@]2(C(=O)CO)O1 [Example 5, (6aR,6bS,7S,8aS,8bS,10S,11aR,12aS,12bS)-10-(3-((3-Aminobenzyl)oxy)-2-fluoro-6-methoxyphenyl)-7-hydroxy-8b-(2-hydroxyacetyl)-6a,8a-dimethyl-1,2,6a,6b,7,8,8a,8b,11a,12,12a,12b-dodecahydro-4H-naphtho[2′,1′:4,5]indeno[1,2-d][1,3]dioxol-4-one] | 1.4 nM |  |
| C[C@]12C=CC(=O)C=C1CC[C@@H]1[C@@H]2[C@@H](O)C[C@@]2(C)[C@H]1C[C@H]1O[C@H](c3c(F)cccc3OCc3cccc(N)c3)O[C@]12C(=O)CO [Example 45, (6aR,6bS,7S,8aS,8bS,10S,11aR,12aS,12bS)-10-(2-((3-aminobenzyl)oxy)-6-fluorophenyl)-7-hydroxy-8b-(2-hydroxyacetyl)-6a,8a-dimethyl-1,2,6a,6b,7,8,8a,8b,11a,12,12a,12b-dodecahydro-4H-naphtho[2′,1′:4,5]indeno[1,2-d][1,3]dioxol-4-one] |  | > 200 nM |
| C[C@]12C=CC(=O)C=C1CC[C@@H]1[C@@H]2[C@@H](O)C[C@@]2(C)[C@H]1C[C@H]1O[C@H](c3c(Cl)cccc3OCc3cccc(N)c3)O[C@]12C(=O)CO [Example 52, (6aR,6bS,7S,8aS,8bS,10S,11aR,12aS,12bS)-10-(2-((3-aminobenzyl)oxy)-6-chlorophenyl)-7-hydroxy-8b-(2-hydroxyacetyl)-6a,8a-dimethyl-1,2,6a,6b,7,8,8a,8b,11a,12,12a,12b-dodecahydro-4H-naphtho[2′,1′:4,5]indeno[1,2-d][1,3]dioxol-4-one] |  | > 200 nM |
| Cc1ccc(OCc2ccccc2N)cc1[C@@H]1O[C@@H]2C[C@H]3[C@@H]4CCC5=CC(=O)C=C[C@]5(C)[C@H]4[C@@H](O)C[C@]3(C)[C@]2(C(=O)CO)O1 [Example 80, (6aR,6bS,7S,8aS,8bS,10R,11aR,12aS,12bS)-10-(5-((2-aminobenzyl)oxy)-2-methylphenyl)-7-hydroxy-8b-(2-hydroxyacetyl)-6a,8a-dimethyl-1,2,6a,6b,7,8,8a,8b,11a,12,12a,12b-dodecahydro-4H-naphtho[2′,1′:4,5]indeno[1,2-d][1,3]dioxol-4-one] |  | > 200 nM |
